Laboratory results reported in patent US4605744A, “Imidazole derivatives” (Hoffmann-La Roche Inc., priority 1985, dated 1986).
Where a name gives a salt, the structure may show the parent alone.

Key:
Assay in all cases: In vitro antibacterial activity (MIC)
Format in all cases: cell-based
C. freundii 8ASM = details: Citrobacter freundii, 8ASM, C. freundii 8ASM; read-out: MIC
Method in brief: (§1)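 Read-out: visible growth, checked with a viewer after overnight incubation at 37° C. Bacteria, from a 10^-2 dilution of an overnight culture, were exposed to drug at 128 to 0.008 μg/ml in Mueller-Hinton broth.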

E. aerogenes 503-478 = details: Klebsiella aerogenes, 503478, E. aerogenes 503-478; read-out: MIC
Method in brief: as §1

E. aerogenes 83 = details: Klebsiella aerogenes, 83, E. aerogenes 83; read-out: MIC
Method in brief: as §1

E. aerogenes 8 = details: Klebsiella aerogenes; E. aerogenes 8; read-out: MIC
Method in brief: as §1

E. cloacae 214 = details: Enterobacter cloacae, 214, E. cloacae 214; read-out: MIC
Method in brief: as §1

E. cloacae 5699 = details: Enterobacter cloacae, 5699, E. cloacae 5699; read-out: MIC
Method in brief: as §1

E. cloacae 6951 = details: Enterobacter cloacae, 6951, E. cloacae 6951; read-out: MIC
Method in brief: as §1

E. cloacae 9295 = details: Enterobacter cloacae, 9295, E. cloacae 9295; read-out: MIC
Method in brief: as §1

E. cloacae 9570A = details: Enterobacter cloacae, read-out: MIC
Method in brief: as §1

E. cloacae P99 = details: Enterobacter cloacae, P99, E. cloacae P99
Method in brief: as §1

E. coli 387-1 = details: Escherichia coli, 3871, E. coli 387-1; read-out: MIC
Method in brief: as §1

E. coli 48 = details: Escherichia coli, 48, E. coli 48; read-out: MIC
Method in brief: as §1

E. coli 4 = details: Escherichia coli, 4, E. coli 4; read-out: MIC
Method in brief: as §1

E. coli 503-455 = details: Escherichia coli, 503455, E. coli 503-455; read-out: MIC
Method in brief: as §1

E. coli 5152 = details: Escherichia coli, 5152, E. coli 5152; read-out: MIC
Method in brief: as §1

E. coli R-563 = details: Escherichia coli, R563, E. coli R-563; read-out: MIC
Method in brief: as §1

K. pneumoniae 35 = details: Klebsiella pneumoniae; K. pneumoniae 35; read-out: MIC
Method in brief: as §1

K. pneumoniae 4964 = details: Klebsiella pneumoniae, 4964, K. pneumoniae 4964; read-out: MIC
Method in brief: as §1

K. pneumoniae 503-964 = details: Klebsiella pneumoniae, 503964; K. pneumoniae 503-964; read-out: MIC
Method in brief: as §1

K. pneumoniae 503-994 = details: Klebsiella pneumoniae, 503994, K. pneumoniae 503-994; read-out: MIC
Method in brief: as §1

K. pneumoniae 5096 = details: Klebsiella pneumoniae; K. pneumoniae 5096; read-out: MIC
Method in brief: as §1

K. pneumoniae 8357 = details: Klebsiella pneumoniae, 8357, K. pneumoniae 8357; read-out: MIC
Method in brief: as §1

K. pneumoniae A = details: Klebsiella pneumoniae, K. pneumoniae A; read-out: MIC
Method in brief: as §1

K. pneumoniae HE7 = details: Klebsiella pneumoniae; K. pneumoniae HE7; read-out: MIC
Method in brief: as §1

P. aeruginosa 503-56 = details: Pseudomonas aeruginosa, 50356, P. aeruginosa 503-56; read-out: MIC
Method in brief: as §1

P. aeruginosa 503-820 = details: Pseudomonas aeruginosa, 503820; P. aeruginosa 503-820; read-out: MIC
Method in brief: as §1

P. aeruginosa 6148B = details: Pseudomonas aeruginosa, read-out: MIC
Method in brief: as §1

P. aeruginosa 8710 = details: Pseudomonas aeruginosa; P. aeruginosa 8710; read-out: MIC
Method in brief: as §1

P. aeruginosa 8780 = details: Pseudomonas aeruginosa; P. aeruginosa 8780; read-out: MIC
Method in brief: as §1

P. mirabilis 190 = details: Proteus mirabilis, 190, P. mirabilis 190; read-out: MIC
Method in brief: as §1

P. mirabilis 2 = details: Proteus mirabilis, 2, P. mirabilis 2; read-out: MIC
Method in brief: as §1

P. rettgeri ATCC 9250 = details: Providencia rettgeri, ATCC9250, P. rettgeri ATCC 9250; read-out: MIC
Method in brief: as §1

P. vulgaris ATCC 6380 = details: Proteus vulgaris, ATCC6380, P. vulgaris ATCC 6380; read-out: MIC
Method in brief: as §1

S. aureus Giorgio = details: Staphylococcus aureus, S. aureus Giorgio; read-out: MIC
Method in brief: as §1

S. marcescens 5805 = details: Serratia marcescens, 5805, S. marcescens 5805; read-out: MIC
Method in brief: as §1

S. marcescens S2 = details: Serratia marcescens; S. marcescens S2; read-out: MIC
Method in brief: as §1

S. marcescens S3 = details: Serratia marcescens; S. marcescens S3; read-out: MIC
Method in brief: as §1

S. marcescens S4 = details: Serratia marcescens, S4, S. marcescens S4; read-out: MIC
Method in brief: as §1

S. marcescens SM = details: Serratia marcescens, read-out: MIC
Method in brief: as §1

S. pneumoniae 6301 = details: Streptococcus pneumoniae, 6301, S. pneumoniae 6301; read-out: MIC
Method in brief: as §1

S. pneumoniae 6302 = details: Streptococcus pneumoniae, 6302, S. pneumoniae 6302; read-out: MIC
Method in brief: as §1

S. pneumoniae SC = details: Streptococcus pneumoniae, read-out: MIC
Method in brief: as §1

S. pyogenes 4 = details: Streptococcus pyogenes, 4, S. pyogenes 4; read-out: MIC
Method in brief: as §1

S. schottmuelleri = details: read-out: MIC
Method in brief: as §1

S. typhi P58A = details: Salmonella enterica, TYPHI
Method in brief: as §1

## Cc1nc(C)n(CCCC2CCN(C=N[C@@H]3C(=O)N4[C@@H]3SC(C)(C)[C@@H]4C(=O)O)CC2)c1C [E, [2S-(2alpha,5alpha,6beta)]-6[[4-[3-[(2,4,5-trimethyl-1H-imidazol-1-yl)propyl]-1-piperidinyl]methylene]amino]-3,3-dimethyl-7-oxo-4-thia-1-azabicyclo[3.2.0]heptane-2-carboxylic acid hydrate hydrochloride]
C. freundii 8ASM
  MIC: < 0.008 µg/mL
E. aerogenes 503-478
  MIC: 1 µg/mL
E. aerogenes 83
  MIC: 0.5 µg/mL
E. aerogenes 8
  MIC: 32 µg/mL
E. cloacae 214
  MIC: 0.5 µg/mL
E. cloacae 5699
  MIC: 0.125 µg/mL
E. cloacae 6951
  MIC: 8 µg/mL
E. cloacae 9295
  MIC: 0.25 µg/mL
E. cloacae 9570A
  MIC: 0.125 µg/mL
E. cloacae P99
  MIC: 0.125 µg/mL
E. coli 387-1
  MIC: 4 µg/mL
E. coli 48
  MIC: 0.062 µg/mL
E. coli 4
  MIC: 4 µg/mL
E. coli 503-455
  MIC: 2 µg/mL
E. coli 5152
  MIC: 8 µg/mL
E. coli R-563
  MIC: 4 µg/mL
K. pneumoniae 35
  MIC: 0.125 µg/mL
K. pneumoniae 4964
  MIC: 1 µg/mL
K. pneumoniae 503-964
  MIC: 0.062 µg/mL
K. pneumoniae 503-994
  MIC: 0.062 µg/mL
K. pneumoniae 5096
  MIC: > 128 µg/mL
K. pneumoniae 8357
  MIC: 0.062 µg/mL
K. pneumoniae A
  MIC: 0.062 µg/mL
K. pneumoniae HE7
  MIC: > 128 µg/mL
P. aeruginosa 503-56
  MIC: > 128 µg/mL
P. aeruginosa 503-820
  MIC: > 128 µg/mL
P. aeruginosa 6148B
  MIC: > 128 µg/mL
P. aeruginosa 8710
  MIC: > 128 µg/mL
P. aeruginosa 8780
  MIC: > 128 µg/mL
P. mirabilis 190
  MIC: 0.25 µg/mL
P. mirabilis 2
  MIC: 0.5 µg/mL
P. rettgeri ATCC 9250
  MIC: 0.5 µg/mL
P. vulgaris ATCC 6380
  MIC: 0.062 µg/mL
S. aureus Giorgio
  MIC: 8 µg/mL
S. marcescens 5805
  MIC: 0.5 µg/mL
S. marcescens S2
  MIC: 0.5 µg/mL
S. marcescens S3
  MIC: 0.25 µg/mL
S. marcescens S4
  MIC: 0.5 µg/mL
S. marcescens SM
  MIC: 0.125 µg/mL
S. pneumoniae 6301
  MIC: 1 µg/mL
S. pneumoniae 6302
  MIC: 1 µg/mL
S. pneumoniae SC
  MIC: 0.5 µg/mL
S. pyogenes 4
  MIC: 0.5 µg/mL
S. schottmuelleri
  MIC: 0.062 µg/mL
S. typhi P58A
  MIC: 0.062 µg/mL
